# Experimental data as given in ChEMBL document CHEMBL3046357, “Inhibitors of biotin biosynthesis as potential herbicides” (2004).
# System: Arabidopsis thaliana
# Test: Herbicidal activity against Arabidopsis thaliana after 3 weeks
# Format: functional
row,Compound,GR50
1,COC(=O)CCCCCC(=O)C(N)CS.Cl (stereo not given),120 ppm
2,Cl.NC(CO)C(=O)CCCCCC(=O)O (stereo not given),100 ppm
3,COC(=O)CCCCCC(=O)C(N)CO.Cl (stereo not given),53 ppm
4,CC(O)C(N)C(=O)CCCCCC(=O)O.Cl (stereo not given),250 ppm
5,COC(=O)CCCCCC(=O)C(N)C(C)O.Cl (stereo not given),100 ppm
6,COC(=O)CCCCC/C(CN)=N\O.Cl,53 ppm
7,Cl.NC/C(CCCCCC(=O)O)=N/O,40 ppm
8,CCC(N)/C(CCCCCC(=O)O)=N/O.Cl (stereo not given),>780 ppm
9,CC(C)C(N)/C(CCCCCC(=O)O)=N/O.Cl (stereo not given),>780 ppm
10,Cl.Cl.NCC(N)CCCCCC(=O)O (stereo not given),53 ppm
11,CCC(N)C(N)CCCCCC(=O)O.Cl.Cl (stereo not given),76 ppm
12,CSCCC(N)C(N)CCCCCC(=O)O.Cl.Cl (stereo not given),0.78 ppm
13,CCC1NC(=O)NC1CCCCCC(=O)O (stereo not given),35 ppm
14,CSCCC1NC(=O)NC1CCCCCC(=O)O (stereo not given),>780 ppm
15,CSCC1NC(=O)NC1CCCCCC(=O)O (stereo not given),46 ppm
16,COC(=O)CCCCCC1NC(=S)NC1CCSC (stereo not given),>780 ppm
17,COC(=O)CCCCCC1NC(=S)NC1CSC (stereo not given),44 ppm
18,Cl.NCC(=O)CCCCCC(=O)O,8 ppm
19,CCC(N)C(=O)CCCCCC(=O)O.Cl (stereo not given),43 ppm
20,CC(C)C(N)C(=O)CCCCCC(=O)O.Cl (stereo not given),37 ppm
21,CSCCC(N)C(=O)CCCCCC(=O)O.Cl (stereo not given),>780 ppm
22,CSCC(N)C(=O)CCCCCC(=O)O.Cl (stereo not given),>780 ppm
23,COC(=O)CCCCCC(=O)C(N)CSC.Cl (stereo not given),250 ppm
24,Cl.NC(CS)C(=O)CCCCCC(=O)O (stereo not given),>780 ppm
25,O=C(O)CCCCCC1CNC(=O)N1 (racemic),35 ppm
